The subject of this test is CSNK2A1 mRNA. In words: qPCR of CSNK2A1 mRNA in OVCAR3 cells. The class given is cell-based. Here is the method:
qRT-PCR. Cells were seeded at 50,000 cells per well and treated with siRNA targeting CSNK2A1 (siCSNK2A1 #s3638, Thermo Fisher Scientific) at increasing N:P ratios and incubated for a total of 48 hours in McCoys 5A/DMEM-10% FBS. Treated cells were washed with 1×PBS at 24 hours and fresh media was added. RNAisolation was completed using a Qiagen Mini-RNeasy Kit (Qiagen, Hilden, Germany) according to the manufacturer's protocol. RNA isolation quality and quantity were measured through the Gen5 protocol using a Take3 plate (BioTek). RNA was reverse-transcribed using the QuantiTect Reverse Transcription kit (Qiagen). Quantitative real-time PCR was completed with a QuantStudio 3 qPCR system (Applied Biosystems) using Applied Biosystems TaqMan FAST Master Mix (Thermo Fisher) and CSNK2A1 (ID #Hs00751002_s1) and 18S (ID #Hs99999901_s1) predesigned TaqMan probes, according to the manufacturer's protocol.
Gene and Protein Knockdown. Bioactivity of siRNAs was determined via qPCR and western blot analysis. OVCAR3 or CAOV3 cells were seeded at 50,000 cells per well as previously described and treated with siRNA targeting CSNK2A1 and siNT at N:P ratios 30:1, 40:1, 50:1, 60:1, and 70:1. LHRH-DIV3W peptide complexed with either siNT or siCSNK2A1 was incubated for a total of 48 hours in RPMI 1640/DMEM-10% FBS, with one media exchange occurring after the 24-hour timepoint. Treated cells were washed with 1×PBS at 24 hours and fresh media was added. RNA isolation was completed using a Qiagen Mini-RNeasy Kit (Qiagen, Hilden, Germany) according to the manufacturer's protocol. RNA isolation quality and quantity was measured through the Gen5 protocol using a Take3 plate (BioTek). RNA was reverse transcribed using the QuantiTect Reverse Transcription kit (Qiagen) according to the manufacturer's protocol. Quantitative real-time PCR was completed with a QuantStudio 3 qPCR system (Applied Biosystems, Waltham, MA) using Applied Biosystems TaqMan FAST Master Mix (Thermo Fisher) and CSNK2A1 (ID #Hs00751002_s1) and 18S (ID #Hs99999901_s1) predesigned TaqMan probes according to the manufacturer's protocol.

Non-standard residues stand in square brackets, D forms with d. No end group written: not given here. pG = not defined here

Turning to “pGHWSY-(d) LLRPGGGGGWEADIVADIVWDIVADIVAGGG-(d) RRRRRRRRR ([pG]HWSY[dL]LRPGGGGGWEADIVADIVWDIVADIVAGGG[dR][dR][dR][dR][dR][dR][dR][dR][dR]; reading uncertain) [LHRH-DIV3W]”, the “CSNK2A1 mRNA expression, % of negative control” value was 59.75%±12.61% (50:1, vs LHRH-DIV3W-siNT); 72.17%±23.19% (60:1, vs LHRH-DIV3W-siNT); 51.88%±9.87% (70:1, vs LHRH-DIV3W-siNT).

(Values after patent US20250177548A1, “FUSOGENIC PEPTIDE COMPOSITIONS AND METHODS OF CARGO DELIVERY” (CLEMSON UNIVERSITY, priority 2022, published 2025).)
